From patent US20260125382A1, “COMPOUNDS FOR INHIBITING OR DEGRADING CDK2 AND/OR CDK9 AND MEDICINAL USE THEREOF” (KOREA RESEARCH INSTITUTE OF CHEMICAL TECHNOLOGY, priority 2022, published 2026)

Experiments:
CDK2 = molecular target: T1, CDK2 (Homo sapiens, UniProt P24941); test: CDK protein degradation activity (Western blotting), CDK2; assay type: cell-based; conditions: MDA-MB-231 cells, 16 hours, Western blot
T1 construct: endogenous in cells; host or cells: MDA-MB-231
Procedure, shortened: (§1)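 Protein levels were read by Western blot densitometry, tubulin serving as loading reference. Beforehand, MDA-MB-231 cells had been exposed for 16 hours to 100 nM, 1 μM or 10 μM compound, DMSO as control.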

CDK9 = molecular target: T2, CDK9 (Homo sapiens, UniProt P50750); test: CDK protein degradation activity (Western blotting), CDK9; assay type: cell-based; conditions: MDA-MB-231 cells, 16 hours, Western blot
T2 construct: endogenous in cells; host or cells: MDA-MB-231
T2 sequence (P50750 whole entry): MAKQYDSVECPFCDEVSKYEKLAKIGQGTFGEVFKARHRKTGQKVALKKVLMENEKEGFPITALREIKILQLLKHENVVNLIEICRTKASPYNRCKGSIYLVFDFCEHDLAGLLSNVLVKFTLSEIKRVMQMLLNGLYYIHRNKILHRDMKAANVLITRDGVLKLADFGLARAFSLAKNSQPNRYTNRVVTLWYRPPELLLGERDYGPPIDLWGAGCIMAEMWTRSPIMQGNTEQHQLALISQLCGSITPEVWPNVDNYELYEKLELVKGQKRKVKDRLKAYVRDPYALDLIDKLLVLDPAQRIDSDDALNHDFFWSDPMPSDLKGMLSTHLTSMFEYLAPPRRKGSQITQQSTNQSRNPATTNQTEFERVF
Procedure, shortened: as §1

Structure (SMILES)	Enzyme degradation CDK2 (% remaining) @ 0.1 μM (CDK2)	Enzyme degradation CDK2 (% remaining) @ 1 μM (CDK2)	Enzyme degradation CDK2 (% remaining) @ 10 μM (CDK2)	Enzyme degradation CDK9 (% remaining) @ 0.1 μM (CDK9)	Enzyme degradation CDK9 (% remaining) @ 1 μM (CDK9)	Enzyme degradation CDK9 (% remaining) @ 10 μM (CDK9)
O=C1CC[C@@H](c2ccc(OCC(=O)N3CCC(CCN4CCN(c5ccc(Nc6ncnc7c6ncn7C6CC(NC(=O)Cc7ccccc7)C6)cc5)CC4)CC3)cc2)C(=O)N1 (stereo partly drawn) [Compound 433, N-((1s,3s)-3-(6-((4-(4-(2-(1-(2-(4-(2,6-dioxopiperidin-3-yl)phenoxy)acetyl)piperidin-4-yl)ethyl)piperazin-1-yl)phenyl)amino)-9H-purin-9-yl)cyclobutyl)-2-phenylacetamide]	80%	90%	90%	20%	10%	10%
O=C1CCC(c2ccc(OCC(=O)N3CCC(CCN4CCN(c5ccc(Nc6ncnc7c6ncn7[C@H]6C[C@@H](NC(=O)c7c(Cl)cccc7Cl)C6)cc5)CC4)CC3)cc2)C(=O)N1 (stereo partly drawn) [Compound 434, 2,6-dichloro-N-((1s,3s)-3-(6-((4-(4-(2-(1-(2-(4-(2,6-dioxopiperidin-3-yl)phenoxy)acetyl)piperidin-4-yl)ethyl)piperazin-1-yl)phenyl)amino)-9H-purin-9-yl)cyclobutyl)benzamide]	50%	70%	80%	10/10/10%	10/10/10%	10/10/10%
O=C1CC[C@@H](c2ccc(OCC(=O)N3CCC(CN4CCN(c5ccc(Nc6ncnc7c6ncn7C6CC(NC(=O)c7cccc(C(F)(F)F)n7)C6)cc5)CC4)CC3)cc2)C(=O)N1 (stereo partly drawn) [Compound 436, N-((1s,3s)-3-(6-((4-(4-((1-(2-(4-(2,6-dioxopiperidin-3-yl)phenoxy)acetyl)piperidin-4-yl)methyl)piperazin-1-yl)phenyl)amino)-9H-purin-9-yl)cyclobutyl)-6-(trifluoromethyl)picolinamide]	30/30/30%	30/30/30%	30/30/30%	10/10/10%	10/10/10%	10/10/10%
O=C1CC[C@@H](c2ccc(OCC(=O)N3CCC(CCN4CCN(c5ccc(Nc6ncnc7c6ncn7[C@H]6C[C@@H](NC(=O)c7cccc(C(F)(F)F)n7)C6)cc5)CC4)CC3)cc2)C(=O)N1 [Compound 438, N-((1s,3s)-3-(6-((4-(4-(2-(1-(2-(4-(2,6-dioxopiperidin-3-yl)phenoxy)acetyl)piperidin-4-yl)ethyl)piperazin-1-yl)phenyl)amino)-9H-purin-9-yl)cyclobutyl)-6-(trifluoromethyl)picolinamide]	40%	50%	50%	10/10/10%	10/10/10%	10/10/10%
O=C1CC[C@@H](c2ccc(OCC(=O)N3CCC4(CC3)CC(N3CCN(c5ccc(Nc6ncnc7c6ncn7[C@H]6C[C@@H](NC(=O)c7cccc(C(F)(F)F)n7)C6)cc5)CC3)C4)cc2)C(=O)N1 [Compound 439, N-((1s,3s)-3-(6-((4-(4-(7-(2-(4-(2,6-dioxopiperidin-3-yl)phenoxy)acetyl)-7-azaspiro[3.5]nonan-2-yl)piperazin-1-yl)phenyl)amino)-9H-purin-9-yl)cyclobutyl)-6-(trifluoromethyl)picolinamide]	50/50/50%	50/50/50%	50/50/50%	10/10/10%	10/10/10%	10/10/10%
O=C1CC[C@@H](c2ccc(OCC(=O)N3CCC(CN4CCN(c5ccc(Nc6ncnc7c6ncn7[C@H]6C[C@@H](NC(=O)c7cccc(Cl)n7)C6)cc5)CC4)CC3)cc2)C(=O)N1 [Compound 440, 6-chloro-N-((1s,3s)-3-(6-((4-(4-((1-(2-(4-(2,6-dioxopiperidin-3-yl)phenoxy)acetyl)piperidin-4-yl)methyl)piperazin-1-yl)phenyl)amino)-9H-purin-9-yl)cyclobutyl)picolinamide]	20/20/20%	20/20/20%	20/20/20%	10/10/10%	10/10/10%	10/10/10%
Cc1cccc(C(=O)N[C@H]2C[C@@H](n3cnc4c(Nc5ccc(N6CCN(CCC7CCN(C(=O)COc8ccc([C@@H]9CCC(=O)NC9=O)cc8)CC7)CC6)cc5)ncnc43)C2)n1 [Compound 444, N-((1s,3s)-3-(6-((4-(4-(2-(1-(2-(4-(2,6-dioxopiperidin-3-yl)phenoxy)acetyl)piperidin-4-yl)ethyl)piperazin-1-yl)phenyl)amino)-9H-purin-9-yl)cyclobutyl)-6-methylpicolinamide]	30/30/30%	30/30/30%	30/30/30%	0/0/0%	0/0/0%	0/0/0%

Second part, the compound after the results:

Enzyme degradation CDK2 (% remaining) @ 0.1 μM (CDK2)	Enzyme degradation CDK2 (% remaining) @ 1 μM (CDK2)	Enzyme degradation CDK2 (% remaining) @ 10 μM (CDK2)	Enzyme degradation CDK9 (% remaining) @ 0.1 μM (CDK9)	Enzyme degradation CDK9 (% remaining) @ 1 μM (CDK9)	Enzyme degradation CDK9 (% remaining) @ 10 μM (CDK9)	Structure (SMILES)
50%	40%	40%	0/0/0%	0/0/0%	0/0/0%	O=C1CCC(N2C(=O)c3cccc(CCCCN4CCC(CN5CCN(c6ccc(Nc7ncnc8c7ncn8[C@H]7C[C@@H](NC(=O)c8cccc(F)n8)C7)cc6)CC5)CC4)c3C2=O)C(=O)N1 (stereo partly drawn) [Compound 432, N-((1s,3s)-3-(6-((4-(4-((1-(4-(2-(2,6-dioxopiperidin-3-yl)-1,3-dioxoisoindolin-4-yl)butyl)piperidin-4-yl)methyl)piperazin-1-yl)phenyl)amino)-9H-purin-9-yl)cyclobutyl)-6-fluoropicolinamide]
40/40/40%	40/40/40%	40/40/40%	10/10/10%	10/10/10%	10/10/10%	Cc1cccc(C(=O)NC2CC(n3cnc4c(Nc5ccc(N6CCN(C7CC8(CCN(C(=O)COc9ccc([C@@H]%10CCC(=O)NC%10=O)cc9)CC8)C7)CC6)cc5)ncnc43)C2)n1 (stereo partly drawn) [Compound 435, N-((1s,3s)-3-(6-((4-(4-(7-(2-(4-(2,6-dioxopiperidin-3-yl)phenoxy)acetyl)-7-azaspiro[3.5]nonan-2-yl)piperazin-1-yl)phenyl)amino)-9H-purin-9-yl)cyclobutyl)-6-methylpicolinamide]
30%	40%	40%	10/10/10%	10/10/10%	10/10/10%	O=C1CC[C@@H](c2ccc(OCC(=O)N3CCC(CN4CCN(c5ccc(Nc6ncnc7c6ncn7[C@H]6C[C@@H](NC(=O)c7c(Cl)cccc7Cl)C6)cc5)CC4)CC3)cc2)C(=O)N1 [Compound 437, 2,6-dichloro-N-((1s,3s)-3-(6-((4-(4-((1-(2-(4-(2,6-dioxopiperidin-3-yl)phenoxy)acetyl)piperidin-4-yl)methyl)piperazin-1-yl)phenyl)amino)-9H-purin-9-yl)cyclobutyl)benzamide]
30%	30%	40%	10/10/10%	10/10/10%	10/10/10%	N#Cc1cccc(C(=O)N[C@H]2C[C@@H](n3cnc4c(Nc5ccc(N6CCN(CC7CCN(c8ccc9c(c8)CN(C8CCC(=O)NC8=O)C9=O)CC7)CC6)cc5)ncnc43)C2)n1 (stereo partly drawn) [Compound 441, 6-cyano-N-((1s,3s)-3-(6-((4-(4-((1-(2-(2,6-dioxopiperidin-3-yl)-1-oxoisoindolin-5-yl)piperidin-4-yl)methyl)piperazin-1-yl)phenyl)amino)-9H-purin-9-yl)cyclobutyl)picolinamide]
40/40/40%	40/40/40%	40/40/40%	0/0/0%	0/0/0%	0/0/0%	O=C1CC[C@@H](c2ccc(OCC(=O)N3CCC4(CC3)CC(N3CCN(c5ccc(Nc6ncnc7c6ncn7[C@H]6C[C@@H](NC(=O)c7c(Cl)cccc7Cl)C6)cc5)CC3)C4)cc2)C(=O)N1 [Compound 442, 2,6-dichloro-N-((1s,3s)-3-(6-((4-(4-(7-(2-(4-(2,6-dioxopiperidin-3-yl)phenoxy)acetyl)-7-azaspiro[3.5]nonan-2-yl)piperazin-1-yl)phenyl)amino)-9H-purin-9-yl)cyclobutyl)benzamide]
20/20/20%	20/20/20%	20/20/20%	0/0/0%	0/0/0%	0/0/0%	Cc1cccc(C(=O)NC2CC(n3cnc4c(Nc5ccc(N6CCN(CC7CCN(C(=O)COc8ccc([C@@H]9CCC(=O)NC9=O)cc8)CC7)CC6)cc5)ncnc43)C2)n1 (stereo partly drawn) [Compound 443, N-((1s,3s)-3-(6-((4-(4-((1-(2-(4-(2,6-dioxopiperidin-3-yl)phenoxy)acetyl)piperidin-4-yl)methyl)piperazin-1-yl)phenyl)amino)-9H-purin-9-yl)cyclobutyl)-6-methylpicolinamide]
